In brackets after ≈: the same amount, converted by molar mass.
Experiments:
[1] = test system: vancomycin-resistant enterococci; assay: broth micro-dilution, mean geometric MIC; assay type: cell-based, Enterococcus faecium and Enterococcus faecalis; conditions: enterococci, 24-hour incubation
[2] = test system: Enterococcus gallinarum 245; assay: broth micro-dilution MIC; assay type: cell-based; conditions: Enterococcus gallinarum 245
Description: (§1) The formula I compounds have in vitro and in vivo activity against Gram-positive pathogenic bacteria. The MIC's were determined using a standard broth micro-dilution assay.

Entercoccus faecium 2041 = assay: broth micro-dilution MIC; assay type: cell-based; conditions: Entercoccus faecium 2041
Description: as §1

[3] = test system: Streptococcus pneumoniae P1; assay: broth micro-dilution MIC; assay type: cell-based
Description: as §1

[4] = test system: Staphylococcus haemolyticus 105; assay: broth micro-dilution MIC; assay type: cell-based
Description: as §1

[5] = test system: Staphylococcus haemolyticus 415; assay: broth micro-dilution MIC; assay type: cell-based
Description: as §1

[6] = test system: Staphylococcus epidermidis 270; assay: broth micro-dilution MIC; assay type: cell-based
Description: as §1

[7] = test system: Haemophilus influenzae RD; assay: broth micro-dilution MIC; assay type: cell-based; conditions: Haemophilus influenzae RD
Description: as §1

Entercoccus faecium 180 = assay: broth micro-dilution MIC; assay type: cell-based; conditions: Entercoccus faecium 180
Description: as §1

[8] = test system: Staphylococcus aureus S13E; assay type: cell-based
Description: (§2) The MIC's were determined using a standard broth micro-dilution assay.

[9] = test system: Staphylococcus aureus SA1199B; assay type: cell-based
Description: as §2

[10] = test system: Staphylococcus aureus SA1199; assay: broth micro-dilution MIC; assay type: cell-based
Description: as §2

[11] = test system: Staphylococcus aureus 446; assay: broth micro-dilution MIC; assay type: cell-based
Description: as §2

[12] = test system: Staphylococcus aureus X778; assay: broth micro-dilution MIC; assay type: cell-based
Description: as §2

[13] = test system: Entercoccus faecium 180-1; assay: broth micro-dilution MIC; assay type: cell-based
Description: as §2

[14] = test system: Staphylococcus aureus X400; assay: broth micro-dilution MIC; assay type: cell-based
Description: as §2

[15] = test system: Streptococcus pyogenes C203; assay: broth micro-dilution MIC; assay type: cell-based
Description: as §2

[16] = test system: Staphylococcus aureus 447; assay: broth micro-dilution MIC; assay type: cell-based
Description: as §2

[17] = test system: Staphylococcus aureus SA1199A; assay: broth micro-dilution MIC; assay type: cell-based
Description: as §2

[18] = test system: Staphylococcus aureus 489; assay: broth micro-dilution MIC; assay type: cell-based
Description: as §2

[19] = test system: vancomycin-susceptible enterococci; assay: broth micro-dilution, mean geometric MIC; assay type: cell-based, Enterococcus faecium and Enterococcus faecalis; conditions: enterococci, 24-hour incubation
Entercoccus faecium 276 = assay: broth micro-dilution MIC; assay type: cell-based
Description: as §2

SMILES: CNC(CC(C)C)C(=O)NC1C(=O)NC(CC(N)=O)C(=O)NC2C(=O)NC3C(=O)NC(C(=O)NC(C(=O)O)c4cc(O)cc(O)c4-c4cc3ccc4O)C(OC3CC(C)(N)C(O)C(C)O3)c3ccc(c(Cl)c3)Oc3cc2cc(c3OC2OC(CO)C(O)C(O)C2OC2CC(C)(NCc3ccc(I)s3)C(O)C(C)O2)Oc2ccc(cc2Cl)C1O (stereo not drawn) [Compound 74]
- mean geometric MIC, Vancomycin Resistant Strains [1]: 11 µg/mL
- MIC [2]: ≤ 0.06 µg/mL
- MIC (Entercoccus faecium 2041): ≤ 0.06 µg/mL
- MIC [3]: ≤ 0.06 µg/mL
- MIC [4]: 4 µg/mL (≈ 2.2 µM)
- MIC [5]: 4 µg/mL (≈ 2.2 µM)
- MIC [6]: 0.5 µg/mL (≈ 0.276 µM)
- MIC [7]: 0.5 µg/mL (≈ 0.276 µM)
- MIC (Entercoccus faecium 180): 0.5 µg/mL (≈ 0.276 µM)
- MIC [8]: 0 µg/mL
- MIC [9]: 1 µg/mL (≈ 0.551 µM)
- MIC [10]: ≤ 0.06 µg/mL
- MIC [11]: 4 µg/mL (≈ 2.2 µM)
- MIC [12]: ≤ 0.06 µg/mL
- MIC [13]: ≤ 0.06 µg/mL
- MIC [14]: ≤ 0.06 µg/mL
- MIC [15]: ≤ 0.06 µg/mL
- MIC [16]: 1 µg/mL (≈ 0.551 µM)
- MIC [17]: ≤ 0.06 µg/mL
- MIC [18]: ≤ 0.06 µg/mL

SMILES: CNC(CC(C)C)C(=O)NC1C(=O)NC(CC(N)=O)C(=O)NC2C(=O)NC3C(=O)NC(C(=O)NC(C(=O)O)c4cc(O)cc(O)c4-c4cc3ccc4O)C(O)c3ccc(c(Cl)c3)Oc3cc2cc(c3OC2OC(CO)C(O)C(O)C2OC2CC(C)(NCc3ccc(-c4ccccc4)cc3)C(O)C(C)O2)Oc2ccc(cc2Cl)C1O (stereo not drawn) [Compound 181]
- mean geometric MIC, Vancomycin Resistant Strains [1]: 8.0 µg/mL
- MIC [2]: ≤ 0.06 µg/mL
- MIC [3]: ≤ 0.06 µg/mL
- MIC [4]: 0.25 µg/mL (≈ 0.155 µM)
- MIC [5]: 1 µg/mL (≈ 0.619 µM)
- MIC [7]: 32 µg/mL (≈ 19.8 µM)
- MIC (Entercoccus faecium 180): 4 µg/mL (≈ 2.48 µM)
- MIC [8]: ≤ 0.06 µg/mL
- MIC [9]: ≤ 0.06 µg/mL
- mean geometric MIC, Vancomycin Sensitive Strains [19]: 0.060 µg/mL
- MIC [10]: ≤ 0.06 µg/mL
- MIC [11]: ≤ 0.06 µg/mL
- MIC [12]: ≤ 0.06 µg/mL
- MIC [13]: ≤ 0.06 µg/mL
- MIC (Entercoccus faecium 276): 2 µg/mL (≈ 1.24 µM)
- MIC [14]: ≤ 0.06 µg/mL
- MIC [15]: ≤ 0.06 µg/mL
- MIC [16]: ≤ 0.06 µg/mL
- MIC [17]: ≤ 0.06 µg/mL
- MIC [18]: ≤ 0.06 µg/mL

SMILES: CNC(CC(C)C)C(=O)NC1C(=O)NC(CC(N)=O)C(=O)NC2C(=O)NC3C(=O)NC(C(=O)NC(C(=O)O)c4cc(O)cc(O)c4-c4cc3ccc4O)C(OC3CC(C)(N)C(O)C(C)O3)c3ccc(c(Cl)c3)Oc3cc2cc(c3OC2OC(CO)C(O)C(O)C2OC2CC(C)(NCc3ccc(OCCOCCCl)cc3)C(O)C(C)O2)Oc2ccc(cc2Cl)C1O (stereo not drawn) [Compound 75]
- mean geometric MIC, Vancomycin Resistant Strains [1]: 16 µg/mL
- MIC [2]: 4 µg/mL (≈ 2.22 µM)
- MIC (Entercoccus faecium 2041): ≤ 0.06 µg/mL
- MIC [3]: ≤ 0.06 µg/mL
- MIC [4]: 2 µg/mL (≈ 1.11 µM)
- MIC [5]: 4 µg/mL (≈ 2.22 µM)
- MIC [6]: 0.5 µg/mL (≈ 0.277 µM)
- MIC [7]: 2 µg/mL (≈ 1.11 µM)
- MIC (Entercoccus faecium 180): 0.5 µg/mL (≈ 0.277 µM)
- MIC [8]: 0 µg/mL
- MIC [9]: 0.5 µg/mL (≈ 0.277 µM)
- mean geometric MIC, Vancomycin Sensitive Strains [19]: 0.50 µg/mL
- MIC [10]: 2 µg/mL (≈ 1.11 µM)
- MIC [11]: 2 µg/mL (≈ 1.11 µM)
- MIC [12]: ≤ 0.06 µg/mL
- MIC [13]: ≤ 0.06 µg/mL
- MIC (Entercoccus faecium 276): ≤ 0.06 µg/mL
- MIC [14]: ≤ 0.06 µg/mL
- MIC [15]: ≤ 0.06 µg/mL
- MIC [16]: 1 µg/mL (≈ 0.554 µM)
- MIC [17]: ≤ 0.06 µg/mL
- MIC [18]: ≤ 0.06 µg/mL

SMILES: CNC(CC(C)C)C(=O)NC1C(=O)NC(CC(N)=O)C(=O)NC2C(=O)NC3C(=O)NC(C(=O)NC(C(=O)O)c4cc(O)cc(O)c4-c4cc3ccc4O)C(OC3CC(C)(N)C(O)C(C)O3)c3ccc(c(Cl)c3)Oc3cc2cc(c3OC2OC(CO)C(O)C(O)C2OC2CC(C)(NCc3ccc(-c4ccccc4C)c(C)c3)C(O)C(C)O2)Oc2ccc(cc2Cl)C1O (stereo not drawn) [Compound 237]
- mean geometric MIC, Vancomycin Resistant Strains [1]: 1.0 µg/mL
- MIC [2]: 1 µg/mL (≈ 0.56 µM)
- MIC (Entercoccus faecium 2041): 0.125 µg/mL (≈ 0.07 µM)
- MIC [3]: ≤ 0.06 µg/mL
- MIC [4]: 1 µg/mL (≈ 0.56 µM)
- MIC [5]: 1 µg/mL (≈ 0.56 µM)
- MIC [6]: 0.5 µg/mL (≈ 0.28 µM)
- MIC [7]: 8 µg/mL (≈ 4.48 µM)
- mean geometric MIC, Vancomycin Sensitive Strains [19]: 0.048 µg/mL
- MIC [10]: 1 µg/mL (≈ 0.56 µM)
- MIC [11]: 2 µg/mL (≈ 1.12 µM)
- MIC [12]: 0.5 µg/mL (≈ 0.28 µM)
- MIC [13]: ≤ 0.06 µg/mL
- MIC (Entercoccus faecium 276): 1 µg/mL (≈ 0.56 µM)
- MIC [14]: 1 µg/mL (≈ 0.56 µM)
- MIC [15]: ≤ 0.06 µg/mL
- MIC [16]: 1 µg/mL (≈ 0.56 µM)
- MIC [17]: ≤ 0.06 µg/mL
- MIC [18]: 0.5 µg/mL (≈ 0.28 µM)

Source: patent US5840684A, “Glycopeptide antibiotic derivatives” (Eli Lilly and Company, priority 1995, dated 1998)
